A short description of this data set: solvent given as SMILES.
The mark [1] stands for this setting: in N#Cc1ccc2c(c1)c1ccccc1n2-c1cccc(-n2c3ccccc3c3ccccc32)c1.
The mark [2] stands for this setting: in O=P(c1ccccc1)(c1ccccc1)c1ccccc1Oc1ccccc1P(=O)(c1ccccc1)c1ccccc1.

Each structure is given as a SMILES string. “And” between values parts separate entries of the source, which are not always exact repeats. Equal values may be shown once.

On to `CC(C)(C)c1cc(-n2c(-c3ccc(C(=C(c4ccccc4)c4ccccc4)c4ccccc4)cc3)cc3c2cc(-c2ccc(C(=C(c4ccccc4)c4ccccc4)c4ccccc4)cc2)n3-c2cc(C(C)(C)C)cc(C(C)(C)C)c2)cc(C(C)(C)C)c1`, for which, for the setting “in ClCCl”, the fluorescence lifetime is 0.063 ns.

`Cc1c(C)c(N2c3ccccc3Oc3ccccc32)c(C)c(C)c1B(c1c(C)c(C)c(N2c3ccccc3Oc3ccccc32)c(C)c1C)c1c(C)c(C)c(N2c3ccccc3Oc3ccccc32)c(C)c1C` registered a fluorescence lifetime (in CC(C)(C)c1ccc(-n2c3ccc([Si](c4ccccc4)(c4ccccc4)c4ccccc4)cc3c3cc([Si](c4ccccc4)(c4ccccc4)c4ccccc4)ccc32)cc1) of 1.3 ns.

Molecule `N#C/C(=C\c1ccc(C#N)cc1)c1nc(-c2ccccc2)cs1` returned a fluorescence lifetime (in CC#N) of 3.4 ns.

`COc1ccc(C#Cc2c3cc4ccccc4cc3c(C#Cc3ccc(OC)cc3)c3cc4sc(C)cc4cc23)cc1`: the fluorescence lifetime (in ClCCl) turned out to be 11.8 ns.

As for `N#CC(C#N)=Cc1ccc2c(c1)c1ccccc1n2-c1cc2ccccc2c2ccccc12`, the fluorescence lifetime (in ClCCl) came out at 4.68 ns.

In turn, `COc1ccc(-c2c3cc4ccccc4cc3c(C#Cc3ccccc3)c3cc4cc(C)sc4cc23)cc1` came in with a fluorescence lifetime (in ClCCl) of 11.6 ns.

The molecule `F[B-]1(F)OC(c2ccccc2)=Cc2ccc3ccccc3[n+]21` registered a fluorescence lifetime (in ClC(Cl)Cl) of 1.29 ns.

As for `CC1(C)c2ccccc2N(c2ccc(C(=O)c3cc(C(=O)c4ccc(N5c6ccccc6C(C)(C)c6ccccc65)cc4)cc(C(=O)c4ccc(N5c6ccccc6C(C)(C)c6ccccc65)cc4)c3)cc2)c2ccccc21`, the fluorescence lifetime reads like this: (in Cc1ccccc1) 16.7 ns; (in c1ccc2c(c1)c1ccccc1n2-c1ccc(-c2ccc(-n3c4ccccc4c4ccccc43)cc2)cc1) 25.8 ns.

`CC1(C)c2ccccc2N(c2ccc(-c3ccc(C#N)cc3)cc2)c2ccccc21` yielded a fluorescence lifetime under setting [1] of 6.99 ns.

Molecule `Cc1c(C(=O)c2ccccc2)c2ccc3cccc4c5cccc6ccc1c(c65)c2c34` yielded a fluorescence lifetime (in ClCCl) of 2.37 ns.

Turning to `CCC1=C(C)C2=Cc3c(I)c(I)cn3[B-](F)(F)[N+]2=C1C`, the fluorescence lifetime is, setting by setting: (in C1CCCCC1) 0.212 ns; (in CC(C)=O) 0.097 ns; (in CCO) 0.09 ns; (in CCOC(C)=O) 0.116 ns; (in CO) 0.087 ns; (in OCC(F)(F)F) 0.11 ns.

Molecule `O=c1c2cccc3cccc(c32)c2nc3ccccc3n12` came in with a fluorescence lifetime (in ClCCl) of 11.1 ns.

For `CCN(CC)c1ccc2nc3c4ccccc4c(=O)cc-3oc2c1`, the fluorescence lifetime (in C1CCCCC1) amounted to 2.76 ns; the fluorescence lifetime (in C1COCCO1) was 4.5 ns; the fluorescence lifetime (in CC1COC(=O)O1) was found to be 4.4 ns; the fluorescence lifetime (in CC#N) was found to be 4.7 ns; the fluorescence lifetime (in CC(C)=O) amounted to 4.66 ns; the fluorescence lifetime (in CC(C)O) was 4.1 ns. The fluorescence lifetime is, setting by setting: (in CCCC#N) 4.54 ns; (in CCCCCCCCCCO) 4.19 ns; (in CCCCCO) 3.95 ns; (in CCCCO) 3.91 ns; (in CCCCOCCCC) 4.15 ns; (in CCCO) 3.8 ns. Further, the fluorescence lifetime by setting is: (in CCO) 3.65 ns; (in CCOC(C)=O) 4.53 ns; (in CCOCC) 4.45 ns; (in CN(C)C=O) 4.35 ns; (in CO) 2.8 ns; (in ClC(Cl)(Cl)Cl) 4.1 ns. The fluorescence lifetime stood at 4.48 ns (in ClCCl); 0.94 ns (in OC(C(F)(F)F)C(F)(F)F); 1.76 ns (in OCC(F)(F)F); 1.95 ns (in OCC(O)CO); 2.5 ns (in OCCO); 4.2 ns (in [2H]OC). For the same molecule, for the setting “in [2H]OCC”, the fluorescence lifetime turned out to be 4.56 ns.

As for `CC1=[N+]2C(=C(Oc3ccc4c(c3)CC[C@@H]3[C@@H]4CC[C@]4(C)C(=O)CC[C@@H]34)c3ccc(C)n3[B-]2(F)F)C=C1c1cc2n(c1)[B-](F)(F)[N+]1=CC=CC1=C2c1c(C)cc(C)cc1C`, the fluorescence lifetime is, setting by setting: (in C1CCCCC1) 2.7 ns; (in CCOC(C)=O) 0.911 ns.

`N#Cc1cc(-n2c3ccccc3c3cccnc32)c(-n2c3ccccc3c3cccnc32)cc1C#N` registered a fluorescence lifetime (in c1cc(-n2c3ccccc3c3ccccc32)cc(-n2c3ccccc3c3ccccc32)c1) of 86 ns.

Turning to `CC(C)(C)NS(=O)(=O)c1ccc2c(c1)C(=O)/C(=C1\Sc3ccc(S(=O)(=O)NC(C)(C)C)cc3C1=O)S2`, the fluorescence lifetime came to 12.4 ns (in C1COCCO1), 8.33 ns (in CN(C)C=O) and 0.07 ns (in CS(C)=O).

The molecule `CC1(C)c2ccccc2N(c2ccc(-c3cccc(C#N)c3)cc2)c2ccccc21` displayed a fluorescence lifetime under setting [1] of 6.53 ns.

The molecule `CC1=CC(C)=[N+]2C1=C(c1c(-c3ccccn3)nc3ccccn13)c1c(C)cc(C)n1[B-]2(F)F` came in with a fluorescence lifetime (in ClCCl) of 6.9 ns.

`N#Cc1cccc(C#N)c1-n1c2ccccc2c2cc(-c3ccc4c(c3)c3ccccc3n4-c3c(C#N)cccc3C#N)ccc21` registered a fluorescence lifetime (in Cc1ccccc1) of 28 ns.

With `CC1(C)C(/C=C/C2=C(c3ccc(C(=O)O)cc3)C(=C/C=C3/N(CCCCS(=O)(=O)[O-])c4ccc5ccccc5c4C3(C)C)/CCC2)=[N+](CCCCS(=O)(=O)[O-])c2ccc3ccccc3c21`, the fluorescence lifetime (in CC(C)=O) stood at 0.84 ns; the fluorescence lifetime (in CCO) is 0.69 ns; the fluorescence lifetime (in CO) worked out at 0.61 ns; the fluorescence lifetime (in CS(C)=O) turned out to be 0.98 ns; the fluorescence lifetime (in ClC(Cl)Cl) came to 1.62 ns; the fluorescence lifetime (in ClCCl) came to 1.34 ns. Also, where the note is “in O”, the fluorescence lifetime amounted to 0.2 ns.

Take `Nc1ccccc1C(=O)O`: the fluorescence lifetime was 5.7 ns (in C1CCCCC1); 6.9 ns (in CC#N); 7.6 ns (in CCO); 8.7 ns (in CS(C)=O); 8.6 ns and 8.7 ns (in O); 5.4 ns (in OCC(F)(F)F). For the same molecule, for the setting “in c1ccccc1”, the fluorescence lifetime came to 6.3 ns.

Molecule `C1=CC2C=c3c(cc4cccc5cc6ccccc6c3c45)C3=c4ccccc4=CC(=C1)C32` (centres undefined) yielded a fluorescence lifetime (in ClCCl) of 3.16 ns.

Turning to `Cc1ccc(-c2cc(C)[o+]c(C)c2)cc1`, the fluorescence lifetime was found to be 8.7 ns (in CC#N) and 3.3 ns (in ClCCl).

For the setting “in ClCCl”, `c1ccc(-c2cc3cc4cccc5c(-c6ccccc6)cc6cc7cccc2c7c3c6c45)cc1` came in with a fluorescence lifetime of 4.21 ns.

On to `Cc1c2ccc3c(C)[n+](C)ccc3c2cc[n+]1C`, for which, for the setting “in CC#N”, the fluorescence lifetime was 5.7 ns.

For the setting “in C1CCCCC1”, `Cc1cc(C)c(B(c2c(C)cc(C)cc2C)c2cc3ccc4ccccc4c3c3c2cc(N(C)C)c2ccccc23)c(C)c1` returned a fluorescence lifetime of 8.8 ns.

Take `CCCCCCCCCCCCOc1cc2c3c(ccc4c5c(NC6CCCCC6)cc6c7c(ccc(c1c34)c75)C(=O)N(C1CCCCC1)C6=O)C(=O)N(C1CCCCC1)C2=O`: the fluorescence lifetime (in ClC(Cl)Cl) worked out at 0.8 ns.

In the case of `CCn1c2ccccc2c2cc3c(cc21)c1ccccc1n3CC`, the fluorescence lifetime (in ClC(Cl)Cl) was 2.9 ns.

Regarding `c1ccc(-c2nc(-c3ccccc3)nc(-c3ccc(-n4c5ccccc5c5cc6c(cc54)C4c5ccccc5C6c5ccccc54)cc3)n2)cc1`, the fluorescence lifetime under setting [2] was found to be 9 ns.

For the setting “in C1CCCCC1”, `CCCCCCCC[Si](C)(C)c1cccc2ccccc12` came in with a fluorescence lifetime of 62 ns.

`COc1ccc(N(c2ccccc2)c2ccccc2)cc1` registered a fluorescence lifetime (in Cc1ccccc1) of 1.89 ns.

Molecule `CCC1(CC)c2cc(N(c3ccccc3)c3ccccc3)ccc2-c2c1c1c(c3c2C(CC)(CC)c2cc(N(c4ccccc4)c4ccccc4)ccc2-3)C(CC)(CC)c2cc(N(c3ccccc3)c3ccccc3)ccc2-1` yielded a fluorescence lifetime (in C1CCOC1) of 2.1 ns.

`C1C[C@H]2CC[C@@H]1N=N2`: the fluorescence lifetime (in CC#N) turned out to be 434 ns.

Take `CC(C)(C)n1c(=O)c2cc3ccc4cccc5ccc(c2c1=O)c3c45`: the fluorescence lifetime (in ClC(Cl)Cl) was 4.09 ns.

With `FC(F)(F)C(F)(F)C(F)(F)C(F)(F)C(F)(F)C(F)(F)CCOc1nnc(Cl)nn1`, the fluorescence lifetime reads like this: (in ClCCl) 153 ns; (in OCC(F)(F)F) 152 ns.

Consider `c1ccc2c(c1)[nH]c1c3ccccc3[nH]c21`, for which the fluorescence lifetime (in CCCO) was 5.5 ns.

`COC(C)CC1=N/C(=C\c2cccc(N(C)C)c2)C(=O)N1C` (centres undefined) returned a fluorescence lifetime (in C1CCOC1) of 15.3 ns, a fluorescence lifetime (in CC#N) of 7.7 ns and a fluorescence lifetime (in CCCCCC) of 22.4 ns.

Regarding `CSc1ccc2c(c1)N(CCCN(C)C)c1ccccc1S2`, the fluorescence lifetime turned out to be 1.16 ns (in CC#N), 1.15 ns (in CO) and 1.17 ns (in O).

In turn, `CC(C)(C)c1ccc2c(c1)B1c3cc(C(C)(C)C)ccc3Oc3cc(-n4c5ccccc5c5c6c(c7ccccc7n6-c6ccccc6)c6c(c7ccccc7n6-c6ccccc6)c54)cc(c31)O2` registered a fluorescence lifetime (in Cc1ccccc1) of 19.6 ns.

Molecule `Nc1ccc2c(ccc3[n+]2[B-](F)(F)n2c-3cc3c4ccccc4c4ccccc4c32)c1` registered a fluorescence lifetime (in ClCCl) of 2.96 ns.

As for `C(=C\c1c2ccccc2cc2ccccc12)/c1ccc2ccccc2c1`, the fluorescence lifetime amounted to 3.3 ns (in CC1CCCCC1) and 3.6 ns (in CC#N).

`c1ccc2c(-c3cncnc3)c3ccccc3c(-c3cncnc3)c2c1`: the fluorescence lifetime came out at 6.4 ns (in CCO) and 7.2 ns (in ClCCl).

In turn, `O=C1c2ccccc2-c2nc3c(F)c(F)c(F)c(F)c3n21` displayed a fluorescence lifetime (in ClCCl) of 9.5 ns.

On to `CCCCCCCCOc1cc(/C=C/c2cc[n+](Cc3ccc(C)cc3)cc2)c(OCCCCCCCC)cc1/C=C/c1cc[n+](Cc2ccc(C)cc2)cc1`, for which, under “in ClCCl”, the fluorescence lifetime amounted to 1.23 ns.

Consider `Nc1cc([NH3+])cc(-c2nc3ccccc3s2)c1`, for which, under “in O”, the fluorescence lifetime is 3.87 ns.

Molecule `N#Cc1c(-c2ccc(N(c3ccccc3)c3ccccc3)cc2)c(C#N)c(-c2ccc(N(c3ccccc3)c3ccccc3)cc2)c(C#N)c1-c1ccc(N(c2ccccc2)c2ccccc2)cc1` returned a fluorescence lifetime under setting [2] of 6.21 ns.

Turning to `Cn1c(=O)c(/N=N/c2ccc(Nc3ccccc3)c(S(=O)(=O)O)c2)c(O)c2ccccc21`, for the setting “in CS(C)=O”, the fluorescence lifetime is 0.05 ns.

Turning to `C/C=C/c1cccc(OC)c1`, the fluorescence lifetime (in CC#N) was 6.5 ns and the fluorescence lifetime (in CCCCCC) was 5.9 ns.

In turn, `Oc1ccc2ccccc2c1-c1nc2c(c3c1-c1ccccc1CC3)-c1ccccc1CC2` showed a fluorescence lifetime (in ClCCl) of 0.97 ns.

`c1ccc(-c2cnc3nn4ccccc4c3n2)cc1` showed a fluorescence lifetime (in C1CCOC1) of 5.3 ns.

These data come from the Deep4Chem optical property database.
